Measurements published in the supplement of paper PMC10307832.

Columns and labels:
Assay in all cases: relative viability (nuclei count vs DMSO), 5 days (fraction); higher = more cells survive
AGI-6780 + Alpelisib = compound: O=C(Nc1cccc(C(F)(F)F)c1)Nc1cc(S(=O)(=O)NC2CC2)ccc1-c1ccsc1 [AGI-6780] + Cc1nc(NC(=O)N2CCC[C@H]2C(N)=O)sc1-c1ccnc(C(C)(C)C(F)(F)F)c1 [Alpelisib] (partner 2 µM)
Procedure, shortened: (§1)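 Lung cancer cell lines in 1536-well plates were dosed by pin tool the day after seeding, either with one drug alone or with a fixed anchor-drug dose plus five library-drug doses (not always all listed) in √10 steps. After 5 days, cells were fixed and their nuclei stained in one step (final 0.05% Triton X-100, 1% formaldehyde, 1 ug/ml Hoechst), then counted on 4× images. Relative viability is the nuclei count in treated wells divided by that in vehicle wells. Values are medians of duplicate plates.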

AGI-6780 + Pictilisib = compound: O=C(Nc1cccc(C(F)(F)F)c1)Nc1cc(S(=O)(=O)NC2CC2)ccc1-c1ccsc1 [AGI-6780] + CS(=O)(=O)N1CCN(Cc2cc3nc(-c4cccc5[nH]ncc45)nc(N4CCOCC4)c3s2)CC1 [Pictilisib] (partner 1 µM)
Procedure, shortened: as §1

AGI-6780 + Phenformin = compound: O=C(Nc1cccc(C(F)(F)F)c1)Nc1cc(S(=O)(=O)NC2CC2)ccc1-c1ccsc1 [AGI-6780] + N=C(N)NC(=N)NCCc1ccccc1 [Phenformin] (partner 250 µM)
Procedure, shortened: as §1

AGI-6780 + AZD7762 = compound: O=C(Nc1cccc(C(F)(F)F)c1)Nc1cc(S(=O)(=O)NC2CC2)ccc1-c1ccsc1 [AGI-6780] + NC(=O)Nc1cc(-c2cccc(F)c2)sc1C(=O)N[C@H]1CCCNC1 [AZD7762] (partner 0.2 µM)
Procedure, shortened: as §1

Row | Cell Line | relative viability (AGI-6780 + Alpelisib; first compound 0.08 µM) | relative viability (AGI-6780 + Alpelisib; first compound 0.253 µM) | relative viability (AGI-6780 + Alpelisib; first compound 0.8 µM) | relative viability (AGI-6780 + Alpelisib; first compound 2.53 µM) | relative viability (AGI-6780 + Alpelisib; first compound 8 µM) | relative viability (AGI-6780 + Pictilisib; first compound 0.08 µM) | relative viability (AGI-6780 + Pictilisib; first compound 0.253 µM) | relative viability (AGI-6780 + Pictilisib; first compound 0.8 µM) | relative viability (AGI-6780 + Pictilisib; first compound 2.53 µM) | relative viability (AGI-6780 + Pictilisib; first compound 8 µM) | relative viability (AGI-6780 + Phenformin; first compound 0.08 µM) | relative viability (AGI-6780 + Phenformin; first compound 0.253 µM) | relative viability (AGI-6780 + Phenformin; first compound 0.8 µM) | relative viability (AGI-6780 + Phenformin; first compound 2.53 µM) | relative viability (AGI-6780 + Phenformin; first compound 8 µM) | relative viability (AGI-6780 + AZD7762; first compound 0.08 µM) | relative viability (AGI-6780 + AZD7762; first compound 0.253 µM) | relative viability (AGI-6780 + AZD7762; first compound 0.8 µM) | relative viability (AGI-6780 + AZD7762; first compound 2.53 µM) | relative viability (AGI-6780 + AZD7762; first compound 8 µM)
1 | NCI-H1299 | 1.02 | 1.04 | 0.971 | 1.09 | 1.02 | 0.781 | 0.733 | 0.639 | 0.765 | 0.742 |  |  |  |  |  |  |  |  |  | 
2 | NCI-H1563 | 0.923 | 0.934 | 0.846 | 0.992 | 0.874 | 0.621 | 0.629 | 0.628 | 0.614 | 0.519 | 0.671 | 0.666 | 0.66 | 0.643 | 0.672 |  |  |  |  | 
3 | NCI-H1648 |  |  |  |  |  |  |  |  |  |  |  |  |  |  |  | 0.676 | 0.846 | 0.89 | 0.769 | 0.81
4 | NCI-H1650 |  |  |  |  |  | 0.566 | 0.555 | 0.678 | 0.568 | 0.586 | 0.387 | 0.407 | 0.498 | 0.4 | 0.382 |  |  |  |  | 
5 | NCI-H1703 | 0.377 | 0.278 | 0.424 | 0.344 | 0.251 | 0.336 | 0.197 | 0.259 | 0.223 | 0.248 |  |  |  |  |  | 0.14 | 0.139 | 0.0936 | 0.112 | 0.133
6 | NCI-H2009 | 1.21 | 1.12 | 1.17 | 1.13 | 1.25 | 0.731 | 0.884 | 0.911 | 0.737 | 0.867 | 0.432 | 0.426 | 0.496 | 0.518 | 0.47 |  |  |  |  | 
7 | NCI-H2023 | 0.674 | 0.595 | 0.596 | 0.447 | 0.617 | 0.284 | 0.279 | 0.271 | 0.181 | 0.229 | 0.395 | 0.39 | 0.413 | 0.403 | 0.389 |  |  |  |  | 
8 | NCI-H2228 | 0.904 | 0.831 | 0.563 | 0.618 | 0.635 | 0.378 | 0.532 | 0.358 | 0.133 | 0.386 | 0.341 | 0.278 | 0.31 | 0.347 | 0.393 |  |  |  |  | 
9 | NCI-H2342 |  |  |  |  |  |  |  |  |  |  | 0.572 | 0.759 | 0.636 | 0.53 | 0.793 | 0.47 | 0.667 | 0.612 | 0.499 | 0.733
10 | SK-LU-1 | 0.957 | 0.906 | 0.797 | 1 | 1.02 | 0.496 | 0.57 | 0.437 | 0.435 | 0.752 | 0.549 | 0.555 |  | 0.404 | 0.588 |  |  |  |  | 
11 | SK-MES-1 | 0.877 | 0.926 | 0.898 | 0.894 | 0.789 | 0.365 | 0.367 | 0.338 | 0.273 | 0.344 | 0.689 | 0.647 | 0.623 | 0.665 | 0.683 |  |  |  |  | 
12 | SW 1573 | 0.876 | 0.843 | 0.76 | 0.649 | 0.554 | 0.506 | 0.518 | 0.514 | 0.374 | 0.543 | 0.378 | 0.36 | 0.567 |  | 0.368 |  |  |  |  | 
13 | UMC-11 | 0.938 | 0.866 | 1.07 |  | 0.947 | 0.822 | 0.837 | 1.08 |  | 0.887 | 0.336 | 0.344 | 0.336 |  | 0.365 |  |  |  |  | 
